These results are taken from ChEMBL document CHEMBL1135331, “Synthesis and characterization of a new RXR agonist based on the 6-tert-butyl-1,1-dimethylindanyl structure” (Bioorg Med Chem Lett, 2002).

In this assay the target is T1, Retinoic acid receptor RXR-alpha (Homo sapiens, UniProt P19793).
T1 sequence (P19793 whole entry): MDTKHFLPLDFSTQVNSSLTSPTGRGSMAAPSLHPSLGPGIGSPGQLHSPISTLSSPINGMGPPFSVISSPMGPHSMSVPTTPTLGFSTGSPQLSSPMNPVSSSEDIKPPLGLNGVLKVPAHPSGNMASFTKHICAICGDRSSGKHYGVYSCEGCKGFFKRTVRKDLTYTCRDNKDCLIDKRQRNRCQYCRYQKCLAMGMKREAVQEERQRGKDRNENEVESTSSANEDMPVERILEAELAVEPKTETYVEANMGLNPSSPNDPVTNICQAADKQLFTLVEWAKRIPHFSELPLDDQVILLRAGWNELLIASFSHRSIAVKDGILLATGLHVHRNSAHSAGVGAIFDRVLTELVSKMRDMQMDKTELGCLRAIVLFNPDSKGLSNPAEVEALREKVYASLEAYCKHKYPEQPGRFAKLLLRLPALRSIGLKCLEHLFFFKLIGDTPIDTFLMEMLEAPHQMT
In words: Dissociation constant for binding to Retinoic acid receptor RXR-alpha.

SMILES strings stand for the structures.

In turn, `C=C(/C=C/C=C/C(=O)O)c1cc(C(C)(C)C)cc2c1CCC2(C)C` had a Kd of 220 nM.

What is called Kd is the equilibrium constant for the complex coming apart. Low values mean a tighter complex, high ones a looser complex.
